The text below walks through data of patent US10251931B2, “Cyclic peptides and methods using same” (priority 2014, dated 2019).

One data set deals with T1, HIV-1 gp120 (Human immunodeficiency virus type 1 group M subtype B, UniProt P35961).
T1 construct: Expression and Purification of Wild-Type gp120YU-2; made in house; host or cells: HEK 293F
Format: binding. The note with it: for Dual receptor site (CD4 and 17b) inhibition of gp120, in words: SPR competition. The protocol: SPR competition binding assays were used to assess the structural elements required for cyclic hexapeptide binding to gp120. […] In an attempt to restore the lost contact, the length of the two linkers was changed (Linker 1 and Linker 2 in FIG. 12).
SPR experiments were performed on a Biacore 3000 optical biosensor (GE Healthcare). All experiments were carried out at 25° C. using standard PBS buffer pH=7.4 with 0.005% surfactant Tween. A CM5 sensor chip was derivatized by standard 1-ethyl-3-(3-dimethylaminopropyl) carbodiimide (EDC)/N-hydroxysuccinimide (NHS) chemistry, and coupling was done through ligand amine groups. Antibody 2B6R (α-human IL5R) was immobilized for negative control surfaces. For competition experiments, soluble four domain CD4 and 17b antibody were immobilized on the surface through standard EDC/NHS chemistry. For kinetic analyses, typically 2000-3000 RUs of protein reagents were immobilized on SPR chips, and analytes were passed over the surface at 50-100 μL/min. Surface regeneration was achieved by a 5 μL injection of 10 mM HCl solution at 100 μL/min. […] Regeneration of the surface was achieved by a single 10 second pulse of 1.3 M NaCl/35 mM NaOH and single 5-second pulse of 10 mM glycine, pH 1.5, for sCD4 and mAb 17b, respectively. All analyses were performed in triplicate.
The inhibition curve was converted into a calibration curve by the use of a fitting function. The fitting was done using the 4-parameter Equation (1) from BIAevaluation software,
The cyclic peptides of the invention were tested against HIV-1 gp120 by SPR competition assays as described elsewhere herein. A mixture of the cyclic peptide/gp120 solutions was passed over SPR chip immobilized with CD4 and 17b separately. The competition assay evaluated the ability of each peptide to inhibit the binding between gp120 and both soluble CD4 and 17b antibody, a surrogate for co-receptor.

In another data set the target is S375H mutant of gp120 (Human immunodeficiency virus type 1 group M subtype B, UniProt P35961, S370H). The experiment in a line: SPR competition with gp120 mutant S375H. It is filed as binding, HIV-1.
A further data set has as its target S375W mutant of gp120 (Human immunodeficiency virus type 1 group M subtype B, UniProt P35961, S370W). The experiment in a line: SPR competition with gp120 mutant S375W. Format: binding, HIV-1.
Data set [1] concerns the target Chymotrypsin (bovine pancreas) (Bos taurus, UniProt P00766). The data set is described as follows: In vitro proteolytic stability, chymotrypsin.
Data set [2] concerns the target T2, Trypsin (from bovine pancreas) (Bos taurus, UniProt P00760).
T2 sequence (P00760 24-246): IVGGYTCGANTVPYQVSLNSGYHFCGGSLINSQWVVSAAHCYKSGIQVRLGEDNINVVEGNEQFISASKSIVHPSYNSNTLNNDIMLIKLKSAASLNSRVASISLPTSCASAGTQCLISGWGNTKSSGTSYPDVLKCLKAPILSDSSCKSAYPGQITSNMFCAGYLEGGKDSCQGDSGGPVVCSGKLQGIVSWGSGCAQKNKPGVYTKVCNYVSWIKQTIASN
The data set is described as follows: In vitro proteolytic stability, trypsin. The note with it: 5 h incubation, 37° C.

The test system of the next data set is HIV-1 Bal.01 pseudovirus. The experiment in a line: Inhibition of HIV-1 infection against Bal.01 (HOS.T4.R5 cells, luciferase). It is filed as cell-based.
For another data set, the system named is HIV-1 JR-FL pseudovirus. The experiment in a line: Inhibition of HIV-1 infection against JR-FL (HOS.T4.R5 cells, luciferase). Format: cell-based.
In a further data set the target is monomeric gp120 (Human immunodeficiency virus type 1 group M subtype B, UniProt P35961). The conditions noted are these: read-out: KD, binding to monomeric gp120; cited from earlier work.
Data set [3] relates to HIV-1 subtype A, B and C isolates. The conditions noted are these: read-out: IC50 range, neutralization of viral infection; cited from earlier work.
Data set [4] relates to viruses pseudotyped with VSV-G. The note with it: cited from earlier work.
In a further data set the test system is tissue explants model. The conditions noted are these: concentrations up to 100 μM; cited from earlier work.

Entries after “also recorded” stand apart in the source; their conditions may differ. Positions of bridges follow the written chain, without caps; N, C: chain ends. Non-standard residues stand in square brackets, D forms with d. Residues, ends and D or L forms follow the SMILES beside them. Pro(cis-4-Trz(4-CH2CH2Ph)) = O=C(O)[C@@H]1C[C@H](n2cc(CCc3ccccc3)nn2)CN1

Consider `CC[C@H](C)[C@H](N)C(=O)N[C@H]1CCC(=O)NCCCC[C@@H](C(N)=O)NC(=O)[C@H](Cc2c[nH]c3ccccc23)NC(=O)[C@@H]2C[C@H](n3cc(CCc4ccccc4)nn3)CN2C(=O)[C@H]([C@@H](C)CC)NC(=O)[C@H](CC(N)=O)NC1=O` [AAR024, (3S,6S,15S,18S,21S,25S,26aS)-3-((1H-indol-3-yl)methyl)-18-(2-amino-2-oxoethyl)-15-((2S,3S)-2-amino-3-methylpentanamido)-21-((S)-sec-butyl)-1,4,12,16,19,22-hexaoxo-25-(4-phenethyl-1H-1,2,3-triazol-1-yl)hexacosahydropyrrolo[2,1-f][1,4,7,10,13,19]hexaazacyclotetracosine-6-carboxamide] (H-IENI[Pro(cis-4-Trz(4-CH2CH2Ph))]WK-NH2; lactam 2-7), for which, on HIV-1 gp120, the “fold more active than the linear analogue” value was above 40 fold; the “Dual receptor site (CD4 and 17b) inhibition of gp120, in words” value is “retained the dual receptor site inhibitory signature of linear PTs; also recorded: dual inhibitors”. Further, the “Activity against S375H mutant of gp120” value on S375H mutant of gp120 is “inactive”. Also, the “Activity against S375W mutant of gp120” value at S375W mutant of gp120 is “inactive”.

`CC[C@H](C)[C@@H]1NC(=O)[C@H](CC(N)=O)NC(=O)[C@@H](N)CC(=O)NCCCC[C@@H](C(N)=O)NC(=O)[C@H](Cc2c[nH]c3ccccc23)NC(=O)[C@@H]2C[C@H](n3cc(CCc4ccccc4)nn3)CN2C1=O` [AAR029, (3S,6S,14S,17S,20S,24S,25aS)-3-((1H-indol-3-yl)methyl)-14-amino-17-(2-amino-2-oxoethyl)-20-((S)-sec-butyl)-1,4,12,15,18,21-hexaoxo-24-(4-phenethyl-1H-1,2,3-triazol-1-yl)tetracosahydro-1H-pyrrolo[2,1-f][1,4,7,10,13,18]hexaazacyclotricosine-6-carboxamide] (H-DNI[Pro(cis-4-Trz(4-CH2CH2Ph))]WK-NH2; lactam 1-6): on HIV-1 gp120, the “fold enhanced activity vs AAR029b” value is recorded as around 2 fold; the “fold more active than the linear analogue” value is listed as above 200 fold; the “Dual receptor site (CD4 and 17b) inhibition of gp120, in words” value was “dual inhibitors”. The “State after chymotrypsin treatment, in words” value in data set [1] (30 min incubation, 37° C.) is reported as “almost unchanged”. For the same compound, in [1] (5 h incubation, 37° C.), the “Resistance to chymotrypsin, in words” value is listed as “completely resistant”. For the same compound, in data set [1] (40 h incubation, HPLC and ESI-MS), the “Intactness after chymotrypsin digestion, in words” value is “remained intact”. The “Time the peptide remained stable” value in data set [1] (in the presence of trypsin and chymotrypsin, 37° C., pH 8.2) is above 40 h. Moreover, in data set [2], the “Resistance to trypsin, in words” value is “completely resistant”. Also, in the data set on HIV-1 Bal.01 pseudovirus, the “Infection inhibition against Bal.01, in words” value is “inhibiting activity”. The “Infection inhibition against JR-FL, in words” value in the data set with HIV-1 JR-FL pseudovirus is “inhibiting activity”.

As to “(S)-4-((S)-2-((S)-2-((2S,4S)-1-(L-arginyl-L-isoleucyl-L-asparaginyl-L-asparaginyl-L-alloisoleucyl)-4-(4-ferrocenyl-1H-1,2,3-triazol-1-yl)pyrrolidine-2-carboxamido)-3-(1H-indol-3-yl)propanamido)-3-hydroxypropanamido)-5-(((S)-1-(((S)-1-(((S)-1-amino-4-(methylthio)-1-oxobutan-2-yl)amino)-4-(methylthio)-1-oxobutan-2-yl)amino)-1-oxopropan-2-yl)amino)-5-oxopentanoic acid [HNG156]”, the Kd (as a rule, the free concentration of one partner at which half of the binding sites on the other are occupied at equilibrium, for simple one-to-one binding) on monomeric gp120 is 7 nM. Moreover, in [3], the IC50 – broadly, the concentration that gives 50% inhibition – was 0.08 to 62.5 µM. Moreover, the “Neutralization of VSV-G pseudotyped viruses, in words” value in [4] is “not”. Moreover, in the data set on tissue explants model, the “Toxicity in tissue explants model” value is “no detectable toxicity”.
